What all share (format): in vivo, C57BL/6 mice
Data set [1] relates to kidney. Description: Doxorubicin induced nephrotoxicity model in mice. Conditions: doxorubicin 10 mg/kg single iv dose; 72 hours. On the procedure:
Female C57BL/6 mice were injected intravenously with a single dose of (10 mg/kg) doxorubicin. The mice were sacrificed after 72 hours. The development of glumerular and tubulointerstitial injury after doxorubicin and doxorubicin+Captisol was evaluated by means of renal histology. Paraffin sections of […] were cut and stained with H&E and periodic acid Schiff (PAS). They were examined by light microscopy and scored in a blinded fashion. Thirty glomeruli and neighboring tubules were scored at superficial cortes (near the surface of the capsule). One hundred glomeruli and neighboring tubules were scored at the level of deep renal cortex and around the outer strips of the outer medulla.

For data set [2], the system named is kidney. Put plainly: Acyclovir induced nephrotoxicity in mildly renal compromised mice. Conditions: acyclovir 10 or 30 mg/kg IV, 10 consecutive days, alone. On the procedure:
These doses however, produce nephrotoxicity in humans. Therefore, the nephroprotective effects of sulfobutylether β cyclodextrin (SBEβCD) in mildly renal compromised mice was evaluated. […] In order to produce mildly renal compromised mice, animals were injected with L-NAME (L arginine methyl ester) 10 mg/kg and Indomethacin 10 mg/kg, ip., 15-20 min before the first injection of acyclovir. Female C57BL/6 mice were administered bolus intravenous injections for ten consecutive days with a dose of 10 mg/kg acyclovir (N=3) or acyclovir 10 mg/kg+SBEβCD 173 mg/kg (N=3), or 30 mg/kg acyclovir (N=3) or acyclovir 30 mg/kg+SBEβCD 520 mg/kg (N=3) (Table 6). In both cases the acyclovir to SBEβCD molar ratio was 1:2. Animals were sacrificed after 48 hrs after the last injection. Renal pathology was assessed by evaluating H&E sections of the kidney under a light microscope. Paraffin sections of […] were cut and stained with H&E and periodic acid Schiff (PAS). They were examined by light microscopy and scored in a blinded fashion. Five arbitratary fields at 40× magnification in each sections was assessed according to the below mentioned parameters and scored according to the criteria mentioned.

In data set [3] the test system is kidney. Description: Iohexyl induced nephrotoxicity in mildly renal compromised mice. The note with it: iohexyl 1.5 g/kg iv once, alone, 24 hrs. How it is done:
Iohexyl is nephrotoxic in humans and can produce acute renal failure in renally compromised patients. Therefore, the nephroprotective effects of sulfobutyl ethyl β cyclodextrin (SBE-βCD) in a contrast agent induced nephropathy model involving mildly renal compromised mice was evaluated. […] In order to produce mildly renal compromised mice, female C57BL/6 mice were injected with nitric oxide synthase inhibitor L-NAME (L arginine methyl ester) 10 mg/kg and prostaglandin synthesis inhibitor Indomethacin 10 mg/kg, ip., 15-20 min before injecting of iohexyl. The mice were administered a single bolus intravenous injections of iohexyl 1.5 g/kg (N=4) or iohexyl 1.5 g/kg+SBE-βCD 1.3 g/kg (N=4), or iohexyl 1.5 g/kg+SBE-βCD […] administered 30 minutes before, concurrently, and 30 min after iohexyl injection (N=4) (Table 7). In both cases, the iohexyl to SBE-βCD molar ratio was 1:0.1 during the concurrent dose. […] Renal pathology was assessed by evaluating H&E sections of the kidney under a light microscope.
Paraffin sections of […] were cut and stained with H&E and periodic acid Schiff (PAS). They were examined by light microscopy and scored in a blinded fashion. At 40× magnification, five arbitrary fields in each section was assessed for the below mentioned parameters and scored blindly according to the criteria mentioned. A total of 4 sections were analyzed per kidney.

In data set [4] the test system is kidney. Description: Gentamicin induced nephrotoxicity in mice. The note with it: 10 consecutive days. On the procedure:
These doses however, produce nephrotoxicity in humans. Therefore, nephroprotective effects of SBE-βCD in mildly renal compromised mice was evaluated. […] In order to produce mildly renal compromised mice, animals were injected with L-NAME (L arginine methyl ester) 10 mg/kg and Indomethacin 10 mg/kg, ip., 15-20 min before the first injection of gentamicin. Female C57BL/6 mice were administered bolus intravenous injections for ten consecutive days with a dose of 4.0 mg/kg gentamicin (N=4) or gentamicin 4.0 mg/kg+SBE-βCD 19.2 mg/kg (N=4), or gentamicin 4.0 mg/kg+SBE-βCD 38.4 mg/kg (N=4). Gentamicin to SBE-βCD molar ratios were 1:1 and 1:2 respectively. Animals were sacrificed after 48 hrs after the last injection. Renal pathology was assessed by evaluating H&E sections of the kidney under light microscope.
Paraffin sections of […] were cut and stained with H&E and periodic acid Schiff (PAS). They were examined by light microscopy and scored in a blinded fashion. Five arbitrary fields at 40× magnification in each sections was assessed for the below mentioned parameters and scored according to the criteria mentioned

The record followed here is US8574551B2, “Compositions useful for reducing nephrotoxicity and methods of use thereof” (Verrow Pharmaceuticals, Inc., priority 2005, dated 2013).

In the case of `COc1cccc2c1C(=O)c1c(O)c3c(c(O)c1C2=O)C[C@@](O)(C(=O)CO)C[C@@H]3O[C@H]1C[C@H](N)[C@H](O)[C@H](C)O1` [doxorubicin], in data set [1], the renal histology result was “tubular casts, abundant dilated tubules and moderate loss of brush border in the some proximal tubules”. As to `Nc1nc2c(ncn2COCCO)c(=O)[nH]1` [Acyclovir, acyclovir], the renal histology entry in data set [2] is “moderate to severe signs of tubulopathy”. On to `CC(=O)N(CC(O)CO)c1c(I)c(C(=O)NCC(O)CO)c(I)c(C(=O)NCC(O)CO)c1I` (centres unmarked) [Iohexyl, iohexyl], for which, in data set [3], the renal histology entry is on record as “moderate to severe signs of tubulopathy”. In the case of gentamicin, the renal histology result in data set [4] (healthy mice, gentamicin 4 mg/kg intravenously) was “no noticeable changes in the tubular cells in the healthy kidney”; in data set [4] (mild renal compromised mice (L-NAME + Indomethacin), gentamicin 4 mg/kg iv), “extensive tubular vacuolization and necrosis in the renal cortex”.
